# From patent publication US8802597B2, “Herbicidal pyrimidines” (E I du Pont de Nemours and Company, priority 2003, dated 2014)
# Where two headings read alike, the source gives them in different places.
# Tests used:
# Type in all cases: in vivo
# [1] = test system: chickweed (Stellaria media); assay: Test C postemergence; details: Stellaria media, post-emergence
# Outline: (§1)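 Visual injury ratings, 0 (no effect) to 100 (complete control), made 12 to 14 days after treatment by comparison with untreated controls. Greenhouse plants received test chemical in a surfactant-containing non-phytotoxic solvent, either preemergence on planted seeds or postemergence at the 1- to 4-leaf stage.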
# [2] = test system: Surinam grass (Brachiaria decumbens); assay: Test C pre/postemergence; details: Urochloa decumbens; for pest or weed control at 31 g/ha: 31 g ai/ha; for pest or weed control at 62 g/ha: 62 g ai/ha
# Outline: as §1
# [3] = test system: yellow nutsedge (Cyperus esculentus); assay: Test C pre/postemergence; details: Cyperus; for pest or weed control at 31 g/ha: 31 g ai/ha; for pest or weed control at 62 g/ha: 62 g ai/ha
# Outline: as §1
# [4] = test system: crabgrass (Digitaria sanguinalis); assay: Test C pre/postemergence; details: Digitaria sanguinalis; for pest or weed control at 31 g/ha: 31 g ai/ha; for pest or weed control at 62 g/ha: 62 g ai/ha; for pest or weed control at 125 g/ha: 125 g ai/ha
# Outline: as §1
# [5] = test system: giant foxtail (Setaria faberii); assay: Test C pre/postemergence; details: Setaria faberi; for pest or weed control at 125 g/ha: 125 g ai/ha; for pest or weed control at 31 g/ha: 31 g ai/ha; for pest or weed control at 62 g/ha: 62 g ai/ha
# Outline: as §1
# [6] = test system: giant foxtail (Setaria faberi); assay: Test A pre/postemergence; details: Setaria faberi, 240 h, read-out: Plant response rating, Foxtail, Giant; for pest or weed control at 125 g/ha: 125 g ai/ha; for pest or weed control at 500 g/ha: 500 g ai/ha
# Outline: (§2)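 Compared with untreated controls, treated plants were visually rated for injury on a 0 (none) to 100 (complete control) scale about ten days after spraying. Pre- and postemergence applications used one solvent/surfactant formulation; postemergence plants measured 2–10 cm.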
# [7] = test system: barnyardgrass (Echinochloa crus-galli); assay: Test A pre/postemergence; details: Echinochloa crus-galli, 240 h, read-out: Plant response rating, Barnyardgrass; for pest or weed control at 125 g/ha: 125 g ai/ha; for pest or weed control at 500 g/ha: 500 g ai/ha
# Outline: as §2
# [8] = test system: velvetleaf (Abutilon theophrasti); assay: Test A pre/postemergence; details: Abutilon theophrasti, 240 h, read-out: Plant response rating, Velvetleaf; for pest or weed control at 125 g/ha: 125 g ai/ha; for pest or weed control at 500 g/ha: 500 g ai/ha
# Outline: as §2
# [9] = test system: morningglory (Ipomoea spp.); assay: Test A pre/postemergence; details: Ipomoea, 240 h, read-out: Plant response rating, Morningglory; for pest or weed control at 125 g/ha: 125 g ai/ha; for pest or weed control at 500 g/ha: 500 g ai/ha
# Outline: as §2
# [10] = test system: crabgrass (Digitaria sanguinalis); assay: Test A pre/postemergence; details: Digitaria sanguinalis, 240 h, read-out: Plant response rating, Crabgrass; for pest or weed control at 125 g/ha: 125 g ai/ha; for pest or weed control at 500 g/ha: 500 g ai/ha
# Outline: as §2
# [11] = test system: redroot pigweed (Amaranthus retroflexus); assay: Test A pre/postemergence; details: Amaranthus retroflexus, 240 h, read-out: Plant response rating, Pigweed; for pest or weed control at 125 g/ha: 125 g ai/ha; for pest or weed control at 500 g/ha: 500 g ai/ha
# Outline: as §2
# [12] = post-emergence, Postemergence, read-out: Plant response rating (scale of 0 to 100), Surinam Grass
# [13] = pre-emergence, Preemergence, scale 0 to 100, 0 no effect, 100 complete control, read-out: Plant response rating, Surinam Grass
# [14] = post-emergence, Postemergence, read-out: Plant response rating (scale of 0 to 100), Nutsedge, Yellow
# [15] = pre-emergence, Preemergence, scale 0 to 100, 0 no effect, 100 complete control, read-out: Plant response rating, Nutsedge, Yellow
# [16] = post-emergence, Postemergence, read-out: Plant response rating (scale of 0 to 100), Crabgrass
# [17] = pre-emergence, Preemergence, scale 0 to 100, 0 no effect, 100 complete control, read-out: Plant response rating, Crabgrass
# [18] = post-emergence, Postemergence, read-out: Plant response rating (scale of 0 to 100), Foxtail, Giant
# [19] = pre-emergence, Preemergence, scale 0 to 100, 0 no effect, 100 complete control, read-out: Plant response rating, Foxtail, Giant
# [20] = post-emergence, Postemergence, 0 to 100 scale (0 no effect, 100 complete control)
# [21] = pre-emergence, Preemergence, 0 to 100 scale where 0 is no effect and 100 is complete control, approximately ten days
structure (smiles),measurement,setting,value
"Nc1nc(C2CC2)nc(C(=O)OCc2ccccc2)c1Cl [Compound 78, phenylmethyl 6-amino-5-chloro-2-cyclopropyl-4-pyrimidinecarboxylate]",pest or weed control at 31 g/ha,"[1]; 31 g ai/ha, read-out: Plant response rating (scale of 0 to 100), Chickweed",0%
same,pest or weed control at 62 g/ha,"[1]; 62 g ai/ha, read-out: Plant response rating (scale of 0 to 100), Chickweed",0%
same,pest or weed control at 250 g/ha,"[1]; 250 g ai/ha, scale 0 to 100, read-out: Plant response rating, Chickweed",70%
same,pest or weed control at 125 g/ha,"[2]; post-emergence, Postemergence, 125 g ai/ha, scale 0 to 100 (0 no effect, 100 complete control), read-out: Surinam Grass plant response rating",55%
same,pest or weed control at 31 g/ha,[2]; [12],50%
same,pest or weed control at 62 g/ha,[2]; [12],55%
same,pest or weed control at 250 g/ha,"[2]; post-emergence, Postemergence, 250 g ai/ha, scale 0 to 100, read-out: Plant response rating, Surinam Grass",90%
same,pest or weed control at 16 g/ha,"[2]; pre-emergence, Preemergence, 16 g ai/ha, scale 0 to 100, 0 no effect, 100 complete control, read-out: Plant response rating, Surinam Grass",0%
same,pest or weed control at 31 g/ha,[2]; [13],0%
same,pest or weed control at 62 g/ha,[2]; [13],0%
same,pest or weed control at 31 g/ha,[3]; [14],0%
same,pest or weed control at 62 g/ha,[3]; [14],0%
same,pest or weed control at 125 g/ha,"[3]; post-emergence, Postemergence, 125 g ai/ha, scale 0 to 100 (0 no effect, 100 complete control), read-out: Nutsedge, Yellow plant response rating",0%
same,pest or weed control at 250 g/ha,"[3]; post-emergence, Postemergence, 250 g ai/ha, scale 0 to 100, read-out: Plant response rating, Nutsedge, Yellow",0%
same,pest or weed control at 16 g/ha,"[3]; pre-emergence, Preemergence, 16 g ai/ha, scale 0 to 100, 0 no effect, 100 complete control, read-out: Plant response rating, Nutsedge, Yellow",0%
same,pest or weed control at 31 g/ha,[3]; [15],0%
same,pest or weed control at 62 g/ha,[3]; [15],0%
same,pest or weed control at 31 g/ha,[4]; [16],55%
same,pest or weed control at 62 g/ha,[4]; [16],90%
same,pest or weed control at 125 g/ha,"[4]; post-emergence, Postemergence, scale 0 to 100 (0 no effect, 100 complete control), read-out: Crabgrass plant response rating",90%
same,pest or weed control at 250 g/ha,"[4]; post-emergence, Postemergence, 250 g ai/ha, scale 0 to 100, read-out: Plant response rating, Crabgrass",90%
same,pest or weed control at 16 g/ha,"[4]; pre-emergence, Preemergence, 16 g ai/ha, scale 0 to 100, 0 no effect, 100 complete control, read-out: Plant response rating, Crabgrass",0%
same,pest or weed control at 31 g/ha,[4]; [17],5%
same,pest or weed control at 62 g/ha,[4]; [17],40%
same,pest or weed control at 125 g/ha,"[4]; pre-emergence, Preemergence, scale 0 to 100, read-out: Plant response rating, Crabgrass",45%
same,pest or weed control at 125 g/ha,"[5]; post-emergence, Postemergence, scale 0 to 100 (0 no effect, 100 complete control), read-out: Foxtail, Giant plant response rating",65%
same,pest or weed control at 31 g/ha,[5]; [18],0%
same,pest or weed control at 62 g/ha,[5]; [18],30%
same,pest or weed control at 250 g/ha,"[5]; post-emergence, Postemergence, 250 g ai/ha, scale 0 to 100, read-out: Plant response rating, Foxtail, Giant",70%
same,pest or weed control at 16 g/ha,"[5]; pre-emergence, Preemergence, 16 g ai/ha, scale 0 to 100, 0 no effect, 100 complete control, read-out: Plant response rating, Foxtail, Giant",0%
same,pest or weed control at 31 g/ha,[5]; [19],0%
same,pest or weed control at 62 g/ha,[5]; [19],0%
same,pest or weed control at 125 g/ha,"[5]; pre-emergence, Preemergence, scale 0 to 100, read-out: Plant response rating, Foxtail, Giant",0%
same,pest or weed control at 125 g/ha,[6]; [20],70%
same,pest or weed control at 500 g/ha,[6]; [20],80%
same,pest or weed control at 125 g/ha,[6]; [21],10%
same,pest or weed control at 500 g/ha,[6]; [21],65%
same,pest or weed control at 125 g/ha,[7]; [20],80%
same,pest or weed control at 500 g/ha,[7]; [20],90%
same,pest or weed control at 125 g/ha,[7]; [21],45%
same,pest or weed control at 500 g/ha,[7]; [21],75%
same,pest or weed control at 125 g/ha,[8]; [20],75%
same,pest or weed control at 500 g/ha,[8]; [20],90%
same,pest or weed control at 125 g/ha,[8]; [21],80%
same,pest or weed control at 500 g/ha,[8]; [21],85%
same,pest or weed control at 125 g/ha,[9]; [20],80%
same,pest or weed control at 500 g/ha,[9]; [20],90%
same,pest or weed control at 125 g/ha,[9]; [21],90%
same,pest or weed control at 500 g/ha,[9]; [21],100%
same,pest or weed control at 125 g/ha,[10]; [20],70%
same,pest or weed control at 500 g/ha,[10]; [20],80%
same,pest or weed control at 125 g/ha,[10]; [21],55%
same,pest or weed control at 500 g/ha,[10]; [21],70%
same,pest or weed control at 125 g/ha,[11]; [20],85%
same,pest or weed control at 500 g/ha,[11]; [20],95%
same,pest or weed control at 125 g/ha,[11]; [21],75%
same,pest or weed control at 500 g/ha,[11]; [21],90%
